Assays:
[1] = target: human α4β2 nicotinic acetylcholine receptor (nAChR) (Homo sapiens, UniProt P17787+P43681); assay type: binding; details: SH-EP1-α4β2 cells
[2] = target: CXCR-4 receptor (Homo sapiens, UniProt P61073); assay type: binding; details: A549 cells
Chain of CXCR-4 receptor (P61073 whole entry): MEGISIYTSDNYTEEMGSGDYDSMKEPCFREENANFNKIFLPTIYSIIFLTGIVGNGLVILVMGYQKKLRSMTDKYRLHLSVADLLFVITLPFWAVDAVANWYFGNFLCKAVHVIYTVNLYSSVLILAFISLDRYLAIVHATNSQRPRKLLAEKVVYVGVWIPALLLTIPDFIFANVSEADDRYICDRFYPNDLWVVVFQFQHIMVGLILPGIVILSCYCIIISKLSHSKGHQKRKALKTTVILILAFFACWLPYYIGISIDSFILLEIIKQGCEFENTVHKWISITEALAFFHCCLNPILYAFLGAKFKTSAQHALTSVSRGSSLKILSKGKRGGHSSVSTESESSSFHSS

Chain of human α4β2 nicotinic acetylcholine receptor (nAChR) (P43681 29-627 limits assumed): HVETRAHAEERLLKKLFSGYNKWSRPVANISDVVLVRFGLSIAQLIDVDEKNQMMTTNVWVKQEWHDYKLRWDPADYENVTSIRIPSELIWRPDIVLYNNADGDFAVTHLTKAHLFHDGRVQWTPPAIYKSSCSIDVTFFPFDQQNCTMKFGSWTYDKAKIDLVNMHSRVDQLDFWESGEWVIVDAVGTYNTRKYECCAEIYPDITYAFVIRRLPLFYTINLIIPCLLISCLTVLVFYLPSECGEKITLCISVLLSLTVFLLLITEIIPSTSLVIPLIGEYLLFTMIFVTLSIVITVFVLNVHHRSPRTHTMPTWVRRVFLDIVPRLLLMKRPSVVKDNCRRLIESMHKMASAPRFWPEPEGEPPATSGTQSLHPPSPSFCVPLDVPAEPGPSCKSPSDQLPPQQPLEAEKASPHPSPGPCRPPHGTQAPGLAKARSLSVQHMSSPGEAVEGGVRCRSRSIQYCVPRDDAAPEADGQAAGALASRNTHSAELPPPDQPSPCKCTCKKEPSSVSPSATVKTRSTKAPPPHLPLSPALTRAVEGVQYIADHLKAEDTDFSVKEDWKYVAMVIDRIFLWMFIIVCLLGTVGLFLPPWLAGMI
Chain of human α4β2 nicotinic acetylcholine receptor (nAChR) (P17787 26-502): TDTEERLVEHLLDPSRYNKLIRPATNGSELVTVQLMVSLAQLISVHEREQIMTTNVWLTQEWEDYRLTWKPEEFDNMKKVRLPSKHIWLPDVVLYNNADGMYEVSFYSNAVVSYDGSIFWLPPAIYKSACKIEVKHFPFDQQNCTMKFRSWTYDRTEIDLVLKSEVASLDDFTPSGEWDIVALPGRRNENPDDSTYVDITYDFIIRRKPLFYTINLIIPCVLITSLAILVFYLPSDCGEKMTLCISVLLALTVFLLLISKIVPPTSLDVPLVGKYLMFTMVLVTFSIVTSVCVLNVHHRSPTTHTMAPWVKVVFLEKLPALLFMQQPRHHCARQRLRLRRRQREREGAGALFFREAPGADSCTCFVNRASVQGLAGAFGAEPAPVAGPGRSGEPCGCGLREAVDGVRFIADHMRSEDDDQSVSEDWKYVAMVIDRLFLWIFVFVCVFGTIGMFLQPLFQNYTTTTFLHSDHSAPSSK

| binding induced membrane deformation, maximum value [2] [nm] | Structure (SMILES) | maximum membrane deformation [1] |
| --- | --- | --- |
|  | CC(=O)OCC[N+](C)(C)C [acetylcholine] | around 70 nm |
| 46 | c1cc(CN2CCCNCCNCCCNCC2)ccc1CN1CCCNCCNCCCNCC1 [AMD3100] |  |
